The target of one test is T1, rTas1r2-rTas1r3 V738A (Rattus norvegicus, UniProt Q923K1+Q9Z0R7, V738A).
T1 construct: expressed in transfected cells; host or cells: HEK293T cells stably expressing Gα16gust44
T1 sequence (Q9Z0R7 20-843): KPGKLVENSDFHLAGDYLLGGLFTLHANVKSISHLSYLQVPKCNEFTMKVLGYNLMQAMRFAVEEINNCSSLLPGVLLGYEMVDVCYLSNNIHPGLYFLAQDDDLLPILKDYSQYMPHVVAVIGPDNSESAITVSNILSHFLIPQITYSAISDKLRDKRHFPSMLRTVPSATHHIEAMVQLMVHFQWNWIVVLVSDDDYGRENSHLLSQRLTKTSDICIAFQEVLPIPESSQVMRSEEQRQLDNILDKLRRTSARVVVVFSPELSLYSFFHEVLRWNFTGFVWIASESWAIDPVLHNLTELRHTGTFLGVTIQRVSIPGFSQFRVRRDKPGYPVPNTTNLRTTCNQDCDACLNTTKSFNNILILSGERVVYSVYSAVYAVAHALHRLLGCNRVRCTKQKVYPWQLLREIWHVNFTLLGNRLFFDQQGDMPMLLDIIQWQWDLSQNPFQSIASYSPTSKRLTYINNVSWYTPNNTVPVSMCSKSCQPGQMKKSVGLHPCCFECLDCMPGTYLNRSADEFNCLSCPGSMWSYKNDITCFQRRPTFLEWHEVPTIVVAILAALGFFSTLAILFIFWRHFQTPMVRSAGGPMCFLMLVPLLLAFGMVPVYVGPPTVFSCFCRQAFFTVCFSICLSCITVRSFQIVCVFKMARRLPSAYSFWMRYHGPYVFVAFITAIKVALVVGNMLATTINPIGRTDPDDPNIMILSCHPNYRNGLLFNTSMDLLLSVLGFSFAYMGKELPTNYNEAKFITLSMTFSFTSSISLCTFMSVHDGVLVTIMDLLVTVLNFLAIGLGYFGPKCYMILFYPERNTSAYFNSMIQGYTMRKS
T1 sequence (Q923K1 21-858 V738A): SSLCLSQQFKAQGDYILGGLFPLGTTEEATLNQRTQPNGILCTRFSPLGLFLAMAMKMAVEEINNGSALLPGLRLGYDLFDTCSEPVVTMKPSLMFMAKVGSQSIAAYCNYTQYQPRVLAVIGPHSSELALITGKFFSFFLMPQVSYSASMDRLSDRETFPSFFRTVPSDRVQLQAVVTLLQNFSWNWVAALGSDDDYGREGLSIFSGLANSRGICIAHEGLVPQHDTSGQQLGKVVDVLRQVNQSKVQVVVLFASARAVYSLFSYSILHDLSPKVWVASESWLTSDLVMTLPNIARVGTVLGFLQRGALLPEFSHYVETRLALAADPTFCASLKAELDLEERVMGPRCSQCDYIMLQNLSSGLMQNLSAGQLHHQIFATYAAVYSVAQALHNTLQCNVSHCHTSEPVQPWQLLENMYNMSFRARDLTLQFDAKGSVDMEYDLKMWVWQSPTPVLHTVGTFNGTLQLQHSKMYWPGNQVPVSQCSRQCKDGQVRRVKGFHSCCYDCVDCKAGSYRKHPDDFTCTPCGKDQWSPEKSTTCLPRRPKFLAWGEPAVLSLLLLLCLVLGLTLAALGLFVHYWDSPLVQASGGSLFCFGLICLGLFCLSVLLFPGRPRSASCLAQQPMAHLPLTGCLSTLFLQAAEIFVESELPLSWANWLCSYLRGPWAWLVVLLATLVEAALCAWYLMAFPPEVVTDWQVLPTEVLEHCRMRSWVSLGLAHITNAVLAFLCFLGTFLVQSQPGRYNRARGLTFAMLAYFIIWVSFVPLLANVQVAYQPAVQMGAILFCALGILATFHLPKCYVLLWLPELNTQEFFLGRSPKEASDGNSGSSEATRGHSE
The test is described as follows: Calcium mobilization (FLIPR), rTas1r3-V738A variant. The class given is cell-based. The settings on record: asp 15 mM; cyc 30 mM; neo 0.1 mM; sac 10 mM; suc 100 mM; stev 1 mM. The text has this:
Receptor mutants were generated by site directed mutagenesis according to the QuikChange protocol (Stratagene). The forward and reverse complement primers contained the desired mutations and annealed to the same sequence on opposite strands of the plasmids. The following rTas1r3 receptor variants were generated: m1: S576L; m2: R632Q, S635P, S637Q; m3: M644L A645S; m4: A702T; m5: Q717H, V718M, V723A, E725V; m6: L735F, V738A, I740A. m6/1: V738A, I740A, m6/2: L735F, I740A, m6/3: L735F, V738A. m7: A793V, Y794L, Q795R. Subsequently a rTas1r3-V738A variant was generated. All constructs were checked by sequencing.
The cDNAs were transiently transfected into HEK293T cells stably expressing the chimeric G-protein subunit Gα16gust44 [20] using Lipofectamine 2000 (Invitrogen) according to the manufacturer's protocol. 3–4 hours after transfection, DMEM was replaced by low-glucose DMEM supplemented with GlutaMAX and 10% dialyzed FBS (Invitrogen). 22–44 hours later, cells were loaded for 1 hour with the calcium sensitive dye Fluo4-AM (2 μg/ml in DMEM, Molecular Probes). […] Calcium mobilization was monitored by an automated fluorometric imaging plate reader (FLIPR, Molecular Devices). Ligands (Sigma-Aldrich, Merck) were dissolved in C1 solution. All data were collected from at least two independent experiments carried out in triplicate. The obtained calcium signals were corrected for the response of mock transfected cells and normalized to the fluorescence of cells prior to the stimulus using ΔF/F=(F-F0)/F0.
(a, b) Responses of cells co-transfected with rTas1r2 and rTas1r3 mutants to stimulation with 1 mM stevioside. […] All sweeteners were used at concentrations which were close to the maximal obtainable signal.
(In general: A change in cytosolic calcium serves as a functional read-out for many receptors and channels.)

For test [1], the system named is human TAS1R2-TAS1R3 heteromer. The settings on record: cited from earlier work.

Where a SMILES comes first, the peptide text is derived from it.

Turning to `O=S(=O)(O)NC1CCCCC1` [cyclamate], the “activation of receptor (calcium response)” value on rTas1r2-rTas1r3 V738A is on record as “not”. For the same molecule, the activation of heteromer entry in test [1] was “only activate the human”.
For `COC(=O)[C@H](Cc1ccccc1)NC(=O)[C@@H](N)CC(=O)O` [aspartame] (HELM PEPTIDE1{D.F.[CO[*:1]]}$$$$V2.0), the “activation of receptor (calcium response)” value on rTas1r2-rTas1r3 V738A is on record as “not”. Moreover, the activation of heteromer entry in test [1] was “only activate the human”.
On to `OC[C@H]1O[C@@](CO)(O[C@H]2O[C@H](CO)[C@@H](O)[C@H](O)[C@H]2O)[C@@H](O)[C@@H]1O` [sucrose], for which the “activation of receptor (calcium response)” value on rTas1r2-rTas1r3 V738A was “activated”.
For the molecule `COc1ccc(CCC(=O)c2c(O)cc(O[C@@H]3O[C@H](CO)[C@@H](O)[C@H](O)[C@H]3O[C@@H]3O[C@@H](C)[C@H](O)[C@@H](O)[C@H]3O)cc2O)cc1O` [neohesperidine dihydrochalcone], on rTas1r2-rTas1r3 V738A, the “activation of receptor (calcium response)” value is recorded as “not”.
Same read-out and setting: the value for `C=C1C[C@@]23CC[C@H]4[C@@](C)(CCC[C@@]4(C)C(=O)O[C@@H]4O[C@H](CO)[C@@H](O)[C@H](O)[C@H]4O)[C@@H]2CC[C@]1(O[C@@H]1O[C@H](CO)[C@@H](O)[C@H](O)[C@H]1O[C@@H]1O[C@H](CO)[C@@H](O)[C@H](O)[C@H]1O)C3` [stevioside] was “activated”.

The values are drawn from publication PMC1084349 (BMC Neuroscience, 2005).
